Consider 56 molecules from patent publication US8642609B2, “Modulators of ATP-binding cassette transporters” (Vertex Pharmaceuticals Incorporated, priority 2003, dated 2014).

Each structure is given as a SMILES string.

In this assay the target is T1, ΔF508-CFTR (Homo sapiens, UniProt P13569, DEL508-508).
T1 construct: expressed in transfected cells
Nature of the assay: Membrane potential optical assay (FRET/VIPR), identification of correction compounds. Type of assay: cell-based. Particulars: for Emax: relative efficacy. An outline of the steps: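 Corrector screen: FRET voltage-sensor dyes (CC2-DMPE donor, DiSBAC2(3)) report Cl^− efflux-driven depolarization after 10 μM forskolin and 20 μM genistein in Cl^−-free medium. Beforehand, ΔF508-CFTR NIH3T3 fibroblasts received compound for 16 hrs at 37° C; temperature-corrected cells (27° C) served as positive control.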

T1 sequence (P13569 with tags, fused parts or gaps DEL508-508): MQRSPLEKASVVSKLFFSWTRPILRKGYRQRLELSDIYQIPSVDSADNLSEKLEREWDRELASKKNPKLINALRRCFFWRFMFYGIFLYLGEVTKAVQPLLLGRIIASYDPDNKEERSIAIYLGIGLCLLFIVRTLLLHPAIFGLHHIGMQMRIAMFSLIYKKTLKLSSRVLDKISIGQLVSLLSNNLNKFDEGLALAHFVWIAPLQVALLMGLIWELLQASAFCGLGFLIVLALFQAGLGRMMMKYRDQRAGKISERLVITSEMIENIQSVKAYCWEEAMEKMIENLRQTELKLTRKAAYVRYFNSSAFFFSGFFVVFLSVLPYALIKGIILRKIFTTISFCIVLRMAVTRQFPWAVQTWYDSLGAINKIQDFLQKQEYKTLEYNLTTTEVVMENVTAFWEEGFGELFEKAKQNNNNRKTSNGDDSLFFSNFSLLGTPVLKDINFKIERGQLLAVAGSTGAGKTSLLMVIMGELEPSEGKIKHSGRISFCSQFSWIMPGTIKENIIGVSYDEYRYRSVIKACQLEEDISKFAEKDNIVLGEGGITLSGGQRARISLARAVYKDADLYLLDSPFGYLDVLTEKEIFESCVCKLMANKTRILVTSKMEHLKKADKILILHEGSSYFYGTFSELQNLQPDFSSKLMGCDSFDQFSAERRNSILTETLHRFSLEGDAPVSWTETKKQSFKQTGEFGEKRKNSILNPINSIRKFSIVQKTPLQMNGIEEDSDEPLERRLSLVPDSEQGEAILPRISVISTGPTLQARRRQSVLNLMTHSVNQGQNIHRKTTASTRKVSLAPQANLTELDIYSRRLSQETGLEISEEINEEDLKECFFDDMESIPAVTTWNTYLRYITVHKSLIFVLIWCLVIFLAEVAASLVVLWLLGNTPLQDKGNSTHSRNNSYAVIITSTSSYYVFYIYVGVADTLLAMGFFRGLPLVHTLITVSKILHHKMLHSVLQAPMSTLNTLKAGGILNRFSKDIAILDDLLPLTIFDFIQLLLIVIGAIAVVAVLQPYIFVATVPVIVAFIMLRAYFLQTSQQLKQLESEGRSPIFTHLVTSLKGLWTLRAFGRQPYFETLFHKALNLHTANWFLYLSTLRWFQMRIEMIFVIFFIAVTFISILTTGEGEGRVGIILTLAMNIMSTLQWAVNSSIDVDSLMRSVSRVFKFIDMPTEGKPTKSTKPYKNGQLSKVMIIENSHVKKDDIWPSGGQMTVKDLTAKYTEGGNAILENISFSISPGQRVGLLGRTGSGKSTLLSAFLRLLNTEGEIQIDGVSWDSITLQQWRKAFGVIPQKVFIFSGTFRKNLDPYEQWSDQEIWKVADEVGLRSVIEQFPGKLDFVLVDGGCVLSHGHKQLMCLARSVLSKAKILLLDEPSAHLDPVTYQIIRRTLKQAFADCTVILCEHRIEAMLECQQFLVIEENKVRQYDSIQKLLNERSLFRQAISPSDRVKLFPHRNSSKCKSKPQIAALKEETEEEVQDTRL

Regarding `CC(NC1CCN(S(=O)(=O)c2ccc(Cl)cc2)CC1)c1nc2ccccc2c(=O)n1C` (stereo not drawn) [compound 209], the EC50 (usually the concentration giving half of the maximal effect) is 10 to 25 µM and the maximal effect (Emax) (usually the greatest response seen or fitted, relative to the assay's reference) was in the range of 25 to 100%.

With `CCCn1c([C@@H](C)N2CCN(S(=O)(=O)c3ccc(Br)cc3)CC2)nc2ccccc2c1=O` [compound 148], the EC50 is less than 10 µM and the maximal effect (Emax) is more than 100%.

Consider `COc1ccc(S(=O)(=O)N2CCN(C(C)c3nc(OC4CCCCC4)c4cc(F)ccc4n3)CC2)cc1` (stereo not drawn) [compound 374], for which the 50% effective concentration (EC50) is less than 10 µM and the Emax lay in the range of 25 to 100%.

As for `COc1ccc(S(=O)(=O)N2CCN(C(C)c3ncc(-c4ccccc4)c(N4CCCCC4)n3)CC2)cc1` (stereo not drawn) [compound 376], the EC50 is less than 10 µM and the Emax lay within 25 to 100%.

In the case of `CC(NC[C@@H]1CCCCN1)c1nc2ccccc2c(=O)n1C` (stereo partly drawn) [compound 183], the half-maximal effective concentration (EC50) was in the range of 25 to 60 µM.

Consider `CCCn1c([C@H](C)N2CCN(S(=O)(=O)c3ccc(Br)cc3)CC2)nc2ccccc2c1=O` [compound 147], for which the half-maximal effective concentration (EC50) was less than 10 µM and the Emax is more than 100%.

As for `C#Cc1ccc(S(=O)(=O)N2CCN(C(C)c3nc4ccccc4c(=O)n3C)CC2)cc1` (stereo not drawn) [compound 354], the half-maximal effective concentration (EC50) is 10 to 25 µM and the maximum response (Emax) is 25 to 100%.

For the molecule `CNc1nc(C(C)N2CCN(S(=O)(=O)c3ccc(Cl)cc3)CC2)nc2ccccc12` (stereo not drawn) [compound 232], the EC50 was in the range of 25 to 60 µM and the Emax was 25 to 100%.

Turning to `CC(c1nc2ccccc2c(=O)n1C)N1CC2CC1CN2S(=O)(=O)c1ccc(Cl)cc1` (stereo not drawn) [compound 176], the EC50 was in the range of 25 to 60 µM and the Emax fell in the range of 25 to 100%.

Regarding `CC(c1nc2ccccc2c(=O)n1C)N1CCN(S(=O)(=O)c2cccc3cnccc23)CC1` (stereo not drawn) [compound 251], the EC50 was in the range of 25 to 60 µM and the Emax was less than 25%.

`CC(c1nc2ccccc2c(=O)n1C)N1CCC(N)C1` (stereo not drawn) [compound 178]: the EC50 was in the range of 25 to 60 µM and the Emax is less than 25%.

Regarding `CCCn1c(C(CC)N2CCN(S(=O)(=O)c3ccc(OC)cc3)CC2)nc2ccccc2c1=O` (stereo not drawn) [compound 342], the concentration giving a half-maximal response (EC50) was less than 10 µM and the maximum response (Emax) lay within 25 to 100%.

As to `COc1ccc(S(=O)(=O)N2CCN(C(C)c3nc(N4CCC(C)CC4)c4cc(F)ccc4n3)CC2)cc1` (stereo not drawn) [compound 372], the EC50 fell in the range of 10 to 25 µM and the maximum response (Emax) is more than 100%.

As for `COc1ccc(S(=O)(=O)N2CCN(C(C)c3nc(N4CCN(C(C)=O)CC4)c4ccccc4n3)CC2)cc1` (stereo not drawn) [compound 369], the half-maximal effective concentration (EC50) lay within 25 to 60 µM and the Emax was in the range of 25 to 100%.

Turning to `CC(c1nc2ccccc2c(=O)n1C)N1CCN(S(=O)(=O)Cc2ccccc2)CC1` (stereo not drawn) [compound 278], the 50% effective concentration (EC50) lay within 25 to 60 µM and the Emax is less than 25%.

Regarding `Cc1ccccc1C(=O)N1CCN(C(C)c2nc3ccc(Cl)cc3c(=O)n2C)CC1` (stereo not drawn) [compound 15], the 50% effective concentration (EC50) lay within 10 to 25 µM and the maximum response (Emax) fell in the range of 25 to 100%.

`CC(c1nc2ccccc2c(=O)n1C)N1CCN(S(=O)(=O)c2ccc(C#N)cc2)CC1` (stereo not drawn) [compound 250]: the half-maximal effective concentration (EC50) lay within 25 to 60 µM and the Emax fell in the range of 25 to 100%.

Consider `CCCn1c(C(C)OCC)nc2ccccc2c1=O` (stereo not drawn) [compound 89], for which the half-maximal effective concentration (EC50) is 25 to 60 µM and the Emax is less than 25%.

In the case of `COc1ccc(NC(=O)N2CCN(C(C)c3nc4ccccc4c(=O)n3C)CC2)c(OC)c1` (stereo not drawn) [compound 8], the EC50 was 25 to 60 µM and the Emax was less than 25%.

Regarding `COc1ccc(S(=O)(=O)N2CCN(C(C)c3nc(OCC4COCO4)c4ccccc4n3)CC2)cc1` (stereo not drawn) [compound 294], the EC50 is 25 to 60 µM and the maximal response (Emax) was 25 to 100%.

In the case of `COc1ccc(S(=O)(=O)N2CCN(C(=O)c3nc(N4CCCCC4)c4ccccc4n3)CC2)cc1` [compound 402], the concentration for a half-maximal effect (EC50) fell in the range of 25 to 60 µM and the maximum response (Emax) was less than 25%.

As to `CCc1nc2cccc(Cl)c2c(=O)n1C` [compound 102], the EC50 was in the range of 25 to 60 µM and the Emax is less than 25%.

As to `COc1ccc(S(=O)(=O)N2CCN(C(C)c3nc(N4CCN(c5ccccc5)CC4)c4ccccc4n3)CC2)cc1` (stereo not drawn) [compound 390], the concentration giving a half-maximal response (EC50) is less than 10 µM and the Emax was more than 100%.

Consider `COc1ccc(S(=O)(=O)N2CCN(C(C)c3nc(OC4CCCC4)c4cc(F)ccc4n3)CC2)cc1` (stereo not drawn) [compound 375], for which the concentration for a half-maximal effect (EC50) is less than 10 µM and the maximal effect (Emax) is more than 100%.

Take `Cc1cccc(S(=O)(=O)N2CCN(C(C)c3nc4ccccc4c(=O)n3C)CC2)c1` (stereo not drawn) [compound 48]: the EC50 was 25 to 60 µM and the Emax lay within 25 to 100%.

On to `CC(NCCCN)c1nc2ccccc2c(=O)n1C` (stereo not drawn) [compound 185], for which the EC50 lay within 25 to 60 µM and the Emax was less than 25%.

Turning to `CC(c1nc2cc(Cl)ccc2c(=O)n1C)N1CCN(S(=O)(=O)c2ccc(C(F)(F)F)cc2)CC1` (stereo not drawn) [compound 98], the EC50 is less than 10 µM and the maximum response (Emax) was in the range of 25 to 100%.

With `COc1ccc(S(=O)(=O)N2CCN(C(C)c3nc4ccccc4c(=O)n3CC(C)C)CC2)cc1` (stereo not drawn) [compound 331], the 50% effective concentration (EC50) was less than 10 µM and the Emax is more than 100%.

For the molecule `COc1ccc(S(=O)(=O)N2CCN(C(C)c3nc(N4CCC(C(N)=O)CC4)c4ccccc4n3)CC2)cc1` (stereo not drawn) [compound 364], the EC50 was 25 to 60 µM and the maximum response (Emax) fell in the range of 25 to 100%.

For the molecule `CCCn1c(CN2CCN(S(=O)(=O)c3ccc(Cl)cc3)CC2)nc2ccccc2c1=O` [compound 151], the concentration for a half-maximal effect (EC50) lay in the range of 10 to 25 µM and the maximal effect (Emax) was more than 100%.

Turning to `COc1ccc(S(=O)(=O)N2CCN(C(C)c3nc4ccc(Cl)cc4c(=O)n3C)CC2)cc1` (stereo not drawn) [compound 62], the EC50 was less than 10 µM and the maximal response (Emax) lay in the range of 25 to 100%.

Turning to `CC(c1nc2ccccc2c(=O)n1C)N1CCN(S(=O)(=O)c2ccc(Br)s2)CC1` (stereo not drawn) [compound 247], the concentration giving a half-maximal response (EC50) was 10 to 25 µM and the maximal response (Emax) fell in the range of 25 to 100%.

Consider `CC(c1nc2ccc(N)cc2c(=O)n1C)N1CCN(S(=O)(=O)c2ccc(Br)cc2)CC1` (stereo not drawn) [compound 146], for which the concentration giving a half-maximal response (EC50) was less than 10 µM and the Emax was more than 100%.

Turning to `CC(c1nc2ccc(Cl)cc2c(=O)n1C)N1CCN(C(=O)Nc2ccccc2)CC1` (stereo not drawn) [compound 43], the concentration giving a half-maximal response (EC50) fell in the range of 25 to 60 µM and the Emax was less than 25%.

For the molecule `COc1ccc(S(=O)(=O)N2CCN(C(C)c3nc(N4CCCCC4)c4cc(F)ccc4n3)CC2)cc1` (stereo not drawn) [compound 371], the EC50 was less than 10 µM and the maximal effect (Emax) is more than 100%.

As for `CC(c1nc2ccccc2c(=O)n1C)N1CCN(S(=O)(=O)c2cccc(F)c2)CC1` (stereo not drawn) [compound 248], the EC50 is 25 to 60 µM and the maximal response (Emax) was less than 25%.

In the case of `CC(c1nc2ccccc2c(=O)n1C)N1CCN(C(=O)c2ccc(Cl)cc2)CC1` (stereo not drawn) [compound 53], the half-maximal effective concentration (EC50) fell in the range of 25 to 60 µM and the Emax was 25 to 100%.

`CC(c1nc2ccc(Cl)cc2c(=O)n1C)N1CCN(C(=O)Nc2ccc(F)cc2F)C(C)C1` (stereo not drawn) [compound 3]: the EC50 was 25 to 60 µM and the maximal response (Emax) was less than 25%.

Take `CC(c1nc2ccccc2c(=O)n1C)N1CCN(C(=O)Nc2ccccc2)CC1` (stereo not drawn) [compound 31]: the EC50 lay within 10 to 25 µM and the Emax is less than 25%.

As for `CC(c1nc2cc(Cl)ccc2c(=O)n1C)N1CCNCC1` (stereo not drawn) [compound 90], the EC50 is 25 to 60 µM and the maximum response (Emax) is less than 25%.

On to `Cc1ccc(S(=O)(=O)N2CCN(C(C)c3nc4ccccc4c(=O)[nH]3)CC2)cc1` (stereo not drawn) [compound 129], for which the half-maximal effective concentration (EC50) was 10 to 25 µM and the maximal response (Emax) was less than 25%.

Regarding `COc1ccc(S(=O)(=O)Nc2ccc(NC(C)c3nc4ccccc4c(=O)n3C)cc2)cc1` (stereo not drawn) [compound 307], the 50% effective concentration (EC50) was 25 to 60 µM and the Emax fell in the range of 25 to 100%.

Regarding `CNCCNC(C)c1nc2ccccc2c(=O)n1C` (stereo not drawn) [compound 182], the EC50 fell in the range of 25 to 60 µM and the maximum response (Emax) is less than 25%.

`COc1ccc(S(=O)(=O)N2CCN(C(C)c3nc(OC4CCCCC4)c4ccccc4n3)CC2)cc1` (stereo not drawn) [compound 298]: the 50% effective concentration (EC50) was less than 10 µM and the Emax was more than 100%.

Turning to `CC(NCCNS(=O)(=O)c1ccc(Br)cc1)c1nc2ccccc2c(=O)n1C` (stereo not drawn) [compound 169], the concentration giving a half-maximal response (EC50) was 25 to 60 µM and the Emax lay within 25 to 100%.

Take `CC(c1nc2cc(Cl)ccc2c(=O)n1C)N1CCN(S(=O)(=O)c2cccc(Cl)c2)CC1` (stereo not drawn) [compound 97]: the EC50 was less than 10 µM and the Emax lay within 25 to 100%.

Regarding `COc1ccc(C(=O)N2CCN(C(C)c3nc4ccccc4c(=O)n3C)CC2)cc1` (stereo not drawn) [compound 81], the concentration giving a half-maximal response (EC50) lay in the range of 25 to 60 µM and the Emax was less than 25%.

As for `Cc1ccc(S(=O)(=O)N2CCN(C(C)c3nc4ccc(C#N)cc4c(=O)n3C)CC2)cc1` (stereo not drawn) [compound 125], the EC50 fell in the range of 10 to 25 µM and the Emax was 25 to 100%.

Turning to `COc1ccc(S(=O)(=O)N2CCN(C(C)c3nc(N(C)C)c4ccccc4n3)CC2)cc1` (stereo not drawn) [compound 193], the EC50 was in the range of 25 to 60 µM and the maximal effect (Emax) is 25 to 100%.

Turning to `CCCn1c(C(C)N2CCN(S(=O)(=O)c3ccc(OC)cc3)CC2)nc2ccccc2c1=O` (stereo not drawn) [compound 22], the EC50 is less than 10 µM and the Emax is more than 100%.

Regarding `CC(c1nc2ccccc2c(=O)n1C)N(C[C@@H]1CCCCN1S(=O)(=O)c1ccc(Br)cc1)S(=O)(=O)c1ccc(Br)cc1` (stereo partly drawn) [compound 204], the 50% effective concentration (EC50) was in the range of 25 to 60 µM and the maximum response (Emax) was less than 25%.

Turning to `CC(c1ncc2ccccc2n1)N1CCN(S(=O)(=O)c2ccc(Br)cc2)CC1` (stereo not drawn) [compound 313], the EC50 fell in the range of 25 to 60 µM and the maximum response (Emax) was in the range of 25 to 100%.

As to `CC(C)Oc1nc(C(C)N2CCN(S(=O)(=O)c3ccc(Br)cc3)CC2)nc2ccccc12` (stereo not drawn) [compound 217], the EC50 is less than 10 µM and the Emax is more than 100%.

In the case of `CC(c1nc2ccccc2c(=O)n1C)N1CCN(S(C)(=O)=O)CC1` (stereo not drawn) [compound 79], the concentration for a half-maximal effect (EC50) fell in the range of 25 to 60 µM and the Emax was less than 25%.

Take `COc1ccc(S(=O)(=O)N2CCN(C(C)c3nc4ccccc4c(=O)[nH]3)CC2)cc1` (stereo not drawn) [compound 130]: the EC50 fell in the range of 10 to 25 µM and the Emax is less than 25%.

As to `CC(c1nc2ccccc2c(=O)n1C)N1CCN(S(=O)(=O)c2ccc(CC#N)cc2)CC1` (stereo not drawn) [compound 330], the concentration for a half-maximal effect (EC50) lay within 25 to 60 µM and the Emax was in the range of 25 to 100%.
